Converted amounts (≈) assume the structure as drawn. Where two headings read alike, the source gives them in different places.

For series [1] the following is noted: in vivo, 140 mg/kg. The method, then:
Formulations for toxicological evaluation of SJB-01 were considered. The highest solubility was obtained with 100% PEG 400 and a mixture of Gelucire and PEG 400. Since a formulation with Gelucire:PEG required increased handling time, including dosing at ˜45° C., 100% PEG 400 was chosen for formulation purpose in the early toxicological evaluation including mini-MTD (maximum tolerated dose) and a 14 days toxicological dosing study. The maximum dose reached was 140 mg/kg-the highest possible dose achievable with PEG 400 as vehicle. […] From a formulation perspective, this can only be done by using Gelucire:PEG as a vehicle, under the assumption that a solution will lead to a higher bioavailability than dosing the compound in a PEG 400 suspension. In the table below, the maximum dose of SJB-01 given on a solubilized form is provided, taking into account the tolerated dose of the vehicle as well.

Series [2] is described as follows: Solubility in buffered solutions vs pH at 37 °C (HPLC). The conditions noted are these: thermodynamic from solid, read-out: Solubility at 24 h. It is filed as physicochemical. The method, then:
Aqueous buffers between pH 1.3 and 7.4 (13 total) were prepared and 3 mL added to about 15 mg of SJB-01 (L100149-44-1, jet-milled). These slurries were stirred on a hot-plate at 37° C. for 24 hours. Sonication and vortexting was employed within the first 2 hours of stirring to ensure thorough mixing and wetting of the solids as there was a clear tendency for them to clump and float at the liquid surface. After sonication and vortexing there was substantial solids suspended in solution (slurry) along with the solids that floated on top. At 24 hours, the samples were collected by syringe filtration of about 2 mL of solution. The first 1 mL of solution that passed through the filter was discarded and the second 0.5-1 mL of solution was used for HPLC analysis. The samples were injected into HPLC without dilution.
SJB-01 (L100149-44-1) was weighed directly into volumetric flasks and filled to volume with ACN:water (6:4 vol.) to build a calibration curve. […] Details for the HPLC method used are given in Table 34; these follow the parameters used for previous dissolution study.

What is called solubility is the dissolved amount per volume that the medium holds. As to `CCNn1c(C)c(C(=O)N[C@H](c2ccccc2)C2CC2)c2cccc(F)c2c1=O` [SJB-01, 2-Ethylamino-8-fluoro-3-methyl-1-oxo-1,2-dihydro-isoquinoline-4-carboxylic acid ((S)-cyclopropyl-phenyl-methyl)-amide], in series [1], the “Clinical observations at maximum dose reached” value is “no clinical observations”. The solubility at 24 h in series [2] (Britton-Robinson 0.05M buffer, aqueous buffer, Britton-Robinson 0.05M, initial pH 2.21, 24 h pH 2.22, 37 °C) is 7.9 µg/mL (≈ 20.1 µM); in series [2] (Britton-Robinson 0.05M buffer, aqueous buffer, Britton-Robinson 0.05M, initial pH 2.85, 24 h pH 2.97, 37 °C), 7.4 µg/mL (≈ 18.8 µM); in series [2] (Britton-Robinson 0.05M buffer, aqueous buffer, Britton-Robinson 0.05M, initial pH 4.95, 24 h pH 5.01, 37 °C), 7.7 µg/mL (≈ 19.6 µM); in series [2] (Citric acid/NaOH 0.05M buffer, aqueous buffer, Citric acid/NaOH 0.05M, initial pH 2.86, 24 h pH 2.88, 37 °C) it was 8.1 µg/mL (≈ 20.6 µM); in series [2] (Citric acid/NaOH 0.05M buffer, aqueous buffer, Citric acid/NaOH 0.05M, initial pH 3.82, 24 h pH 3.85, 37 °C) it was 7.5 µg/mL (≈ 19.1 µM); in series [2] (Citric acid/NaOH 0.05M buffer, pH 4.9, aqueous buffer, Citric acid/NaOH 0.05M, initial pH 4.90, 24 h pH 4.90, 37 °C), 7.2 µg/mL (≈ 18.3 µM). The solubility at 24 h was 7.5 µg/mL (≈ 19.1 µM) in series [2] (HCl/KCl 0.05M buffer, aqueous buffer, HCl/KCl 0.05M, initial pH 2.13, 24 h pH 2.16, 37 °C); 7.8 µg/mL (≈ 19.8 µM) in series [2] (HCl/KCl 0.05M buffer, pH 1.3, simulated gastric fluid, HCl/KCl 0.05M, initial pH 1.34, 24 h pH 1.30, 37 °C, jet-milled beta form); 7.1 µg/mL (≈ 18 µM) in series [2] (KH2PO4/NaOH 0.05M buffer, aqueous buffer, KH2PO4/NaOH 0.05M, initial pH 5.98, 24 h pH 6.04, 37 °C); 6.4 µg/mL (≈ 16.3 µM) in series [2] (KH2PO4/NaOH 0.05M buffer, aqueous buffer, KH2PO4/NaOH 0.05M, initial pH 7.46, 24 h pH 7.47, 37 °C); 9.5 µg/mL (≈ 24.1 µM) in series [2] (KHP/HCl 0.05M buffer, aqueous buffer, KHP/HCl 0.05M, initial pH 3.18, 24 h pH 3.14, 37 °C); 9.8 µg/mL (≈ 24.9 µM) in series [2] (KHP/HCl 0.05M buffer, aqueous buffer, KHP/HCl 0.05M, initial pH 3.89, 24 h pH 3.94, 37 °C). The solubility at 24 h in series [2] (KHP/NaOH 0.05M buffer, aqueous buffer, KHP/NaOH 0.05M, initial pH 4.96, 24 h pH 4.99, 37 °C) came out at 8.3 µg/mL (≈ 21.1 µM).

The values above are taken from US20210371385A1, “POLYMORPHIC AND AMORPHOUS FORMS OF ISOQUINOLINONE AND METHODS OF USE THEREOF” (Sojournix, Inc., priority 2018, published 2021).
